{"source": "patent EP4813403A1", "about": "“USE OF GLP-1R/GIPR DOUBLE-TARGET AGONIST IN PREPARING ANIMAL DRUG” (Hangzhou Zhongmeihuadong Pharmaceutical Co., Ltd., priority 2023, dated 2025)", "key": {"dog GIPR": {"biological_target": "T1, dog GIPR (Canis lupus familiaris, UniProt A0A8I3MPG1)", "T1 construct": "expressed in transfected cells; host or cells: CHO-K1 (transient)", "T1 sequence (A0A8I3MPG1 24-449)": "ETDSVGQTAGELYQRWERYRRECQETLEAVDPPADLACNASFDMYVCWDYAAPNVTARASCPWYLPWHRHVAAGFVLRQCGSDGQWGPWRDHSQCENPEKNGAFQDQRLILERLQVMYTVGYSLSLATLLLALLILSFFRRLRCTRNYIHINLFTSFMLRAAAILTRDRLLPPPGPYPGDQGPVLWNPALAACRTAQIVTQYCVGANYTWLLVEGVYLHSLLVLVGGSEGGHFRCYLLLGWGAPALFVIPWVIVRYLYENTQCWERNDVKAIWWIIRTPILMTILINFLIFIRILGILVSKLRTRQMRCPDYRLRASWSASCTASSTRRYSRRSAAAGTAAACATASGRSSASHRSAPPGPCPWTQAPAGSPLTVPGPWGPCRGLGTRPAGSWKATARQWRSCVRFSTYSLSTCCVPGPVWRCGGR", "assay": "Agonistic activity on GIPR of different species (LANCE Ultra cAMP assay): dog", "type": "cell-based", "conditions": "ratio of EC50 value of other species to human EC50 value", "procedure": "CHO-K1 cells were seeded in a 6-well plate at 0.6×10^6 cells/well and incubated overnight in an incubator at a temperature of 37 °C and a carbon dioxide concentration of 5%. The next day, CHO-K1 cell media were replaced. Then two tubes A and B were prepared for each plasmid. 100 µL Opti-MEM was added to tube A, then 4 µL Lipofectamine™ 3000 was added and mixed uniformly. 100 µL Opti-MEM was firstly added to tube B, then 2 µg of one of the plasmids (human GIPR-pcDNA5 (+) plasmid, dog GIPR-pcDNA5 (+) plasmid, mouse GIPR-pcDNA5 (+) plasmid, rat GIPR-pcDNA5 (+) plasmid, rabbit GIPR-pcDNA5 (+) plasmid, monkey GIPR-pcDNA5 (+) plasmid) was added and mixed uniformly, and 4 µL P3000™ was added to tube B and mixed uniformly (the ratio of plasmid to transfection reagent was 1 µg: 2 µL). […]\n18-20 hours after transfection, human GIPR-CHO, dog GIPR-CHO, mouse GIPR-CHO, rat GIPR-CHO, rabbit GIPR-CHO, and monkey GIPR-CHO cells were resuspended in 1×Casein Stimulation Buffer (HBSS, 5 mM HEPES, 0.5 mM IBMX, 0.1% casein, pH7.4), and seeded into a 384-well cell culture plate at 9 µL/well (cell numbers being 1000, 2000, 2000, 2000, 2000, 2000 cells/well, respectively). […] The readings at 665 nm and 620 nm were determined with a 330 nm excitation light on a microplate reader. The 665 nm/620 nm reading ratio was calculated. […]"}, "DIO mice": {"system": "DIO mice", "assay": "Weight loss effect in DIO mice obesity model", "type": "in vivo", "set-up": "Cumulative food intake / Fasting blood glucose / Insulin / Serum TC / ALT: unit not given here", "conditions": "for Insulin resistance index / Serum TC / Fasting blood glucose / Insulin / Body weight / Cumulative food intake / Liver Weight / ALT: Mean±SEM, 10 mice; for Insulin: D30 serum; for Body weight / Cumulative food intake / Liver Weight / Total abdominal fat: s.c. once every 3 days for 4 weeks; for Total abdominal fat: sum of perirenal and paratesticular fat; for ALT: serum", "procedure": "In this study, 26-week-old male DIO mice were used. DIO mice were housed in appropriate cages. DIO mice were housed in an environment-monitored and well-ventilated SPF-grade animal room, with the temperature maintained between 20 and 26°C and relative humidity between 40% and 70%. […] The mice received food and water ad libitum. […] The mice were subcutaneously administrated once every 3 days for 4 consecutive weeks. […] Food intake was measured once daily after administration. RBG was measured before grouping and at 48 h after each administration. After fasted for 5 h on D30 (no water deprivation was required), FBG and glycated hemoglobin A1c (HbA1c) were detected, and blood was collected intravenously to separate the serum. A mouse insulin ELISA kit was used to detect the insulin content in the serum, and a biochemistry analyser was used to detect total cholesterol (TC), TG, low-density lipoprotein cholesterol (LDL), high-density lipoprotein cholesterol (HDL), free fatty acid (FFA), ALT, and aspartate aminotransferase (AST) content. The liver was collected, the perirenal and paratesticular fat tissues were separated and weighed, the organ-body ratio was calculated. The liver was stained with HE and Oil Red O for pathological scoring. The data results were statistically analyzed using one-way analysis of variance (ANOVA). A Levene's test was performed to test for variance homogeneity. If the result was homogeneous (P>0.05), a one-way analysis of variance (ANOVA) would be performed. […] In the case of heterogeneity of variance (P ≤0.05 ), a Dunnett's T3 test would be performed. Results were expressed as mean and standard deviation (Mean ± SEM). The test level was 0.05. Both statistical significance and biological significance were considered when analyzing the results."}, "[1]": {"conditions": "0.3 nmol/kg s.c. once every 3 days"}, "[2]": {"conditions": "1 nmol/kg s.c. once every 3 days"}, "[3]": {"conditions": "3 nmol/kg s.c. once every 3 days"}, "[4]": {"conditions": "30 nmol/kg s.c. once every 3 days"}}, "data": [{"smiles": "CC[C@H](C)[C@H](NC(=O)C(C)(C)NC(=O)[C@H](Cc1ccc(O)cc1)NC(=O)[C@H](CC(=O)O)NC(=O)[C@H](CO)NC(=O)[C@@H](NC(=O)C(C)(Cc1ccccc1)NC(=O)[C@@H](NC(=O)CNC(=O)[C@H](CCC(=O)O)NC(=O)C(C)(C)NC(=O)[C@@H](N)Cc1ccc(O)cc1)[C@@H](C)O)[C@@H](C)O)C(=O)NC(C)(C)C(=O)N[C@@H](CC(C)C)C(=O)N[C@@H](CC(=O)O)C(=O)N[C@@H](CCCCN)C(=O)N[C@@H](CCC(N)=O)C(=O)N[C@@H](C)C(=O)N[C@@H](CCC(N)=O)C(=O)N[C@@H](C)C(=O)N[C@@H](CCC(=O)O)C(=O)N[C@@H](Cc1ccccc1)C(=O)N[C@H](C(=O)N[C@@H](CCCCNC(=O)COCCOCCNC(=O)COCCOCCNC(=O)COCCOCCNC(=O)CC[C@H](NC(=O)CCCCCCCCCCCCCCCCCCCCC(=O)O)C(=O)O)C(=O)N[C@@H](Cc1c[nH]c2ccccc12)C(=O)N[C@@H](CC(C)C)C(=O)N[C@@H](CC(C)C)C(=O)N[C@@H](CCCCN)C(=O)NCC(=O)NCC(=O)N1CCC[C@H]1C(=O)N[C@@H](CO)C(=O)N[C@@H](CO)C(=O)NCC(=O)N[C@@H](C)C(=O)N1CCC[C@H]1C(=O)N1CCC[C@H]1C(=O)N1CCC[C@H]1C(=O)N[C@@H](CO)C(=O)N[C@@H](CCCCN)C(N)=O)C(C)C", "note": "(stereo partly shown) [Compound P016]", "values": [{"measurement": "GIPR EC50 ratio", "setting": "dog GIPR", "result": 2.88}, {"measurement": "Insulin resistance index", "setting": "DIO mice; [1]", "result": "43.94±6.288"}, {"measurement": "Serum TC", "setting": "DIO mice; [1]", "result": "4.07±0.26"}, {"measurement": "Insulin resistance index", "setting": "DIO mice; [2]", "result": "21.532±3.705"}, {"measurement": "Serum TC", "setting": "DIO mice; [2]", "result": "3.26±0.20"}, {"measurement": "Insulin resistance index", "setting": "DIO mice; [3]", "result": "11.991±1.907"}, {"measurement": "Serum TC", "setting": "DIO mice; [3]", "result": "2.61±0.13"}, {"measurement": "Insulin resistance index", "setting": "DIO mice; [4]", "result": "5.179±1.178"}, {"measurement": "Serum TC", "setting": "DIO mice; [4]", "result": "2.50±0.18"}, {"measurement": "Fasting blood glucose", "setting": "DIO mice; D30, 0.3 nmol/kg s.c. once every 3 days", "result": "13.78±0.39"}, {"measurement": "Fasting blood glucose", "setting": "DIO mice; D30, 1 nmol/kg s.c. once every 3 days", "result": "11.23±0.40"}, {"measurement": "Fasting blood glucose", "setting": "DIO mice; D30, 3 nmol/kg s.c. once every 3 days", "result": "10.36±0.67"}, {"measurement": "Fasting blood glucose", "setting": "DIO mice; D30, 30 nmol/kg s.c. once every 3 days", "result": "8.39±0.30"}, {"measurement": "Insulin", "setting": "DIO mice; [1]", "result": "3.285±0.481"}, {"measurement": "Insulin", "setting": "DIO mice; [2]", "result": "1.911±0.29"}, {"measurement": "Insulin", "setting": "DIO mice; [3]", "result": "1.196±0.185"}, {"measurement": "Insulin", "setting": "DIO mice; [4]", "result": "0.624±0.130"}, {"measurement": "Body weight", "setting": "DIO mice; 0.3 nmol/kg", "result": "45.4 ± 1.3", "unit": "g"}, {"measurement": "Cumulative food intake", "setting": "DIO mice; 0.3 nmol/kg", "result": "75.75±2.81"}, {"measurement": "Liver Weight", "setting": "DIO mice; 0.3 nmol/kg", "result": "1.552 ± 0.106", "unit": "g"}, {"measurement": "Total abdominal fat", "setting": "DIO mice; 0.3 nmol/kg", "result": "2.631 ± 0.069", "unit": "g"}, {"measurement": "Body weight", "setting": "DIO mice; 1 nmol/kg", "result": "38.3 ± 1.1", "unit": "g"}, {"measurement": "Cumulative food intake", "setting": "DIO mice; 1 nmol/kg", "result": "61.40±1.58"}, {"measurement": "Liver Weight", "setting": "DIO mice; 1 nmol/kg", "result": "1.191 ± 0.075", "unit": "g"}, {"measurement": "Total abdominal fat", "setting": "DIO mice; 1 nmol/kg", "result": "1.849 ± 0.181", "unit": "g"}, {"measurement": "Body weight", "setting": "DIO mice; 3 nmol/kg", "result": "34.1 ± 0.7", "unit": "g"}, {"measurement": "Cumulative food intake", "setting": "DIO mice; 3 nmol/kg", "result": "55.47±2.72"}, {"measurement": "Liver Weight", "setting": "DIO mice; 3 nmol/kg", "result": "1.069 ± 0.029", "unit": "g"}, {"measurement": "Total abdominal fat", "setting": "DIO mice; 3 nmol/kg", "result": "0.972 ± 0.076", "unit": "g"}, {"measurement": "Body weight", "setting": "DIO mice; 30 nmol/kg", "result": "29 ± 0.7", "unit": "g"}, {"measurement": "Cumulative food intake", "setting": "DIO mice; 30 nmol/kg", "result": "48.38±2.31"}, {"measurement": "Liver Weight", "setting": "DIO mice; 30 nmol/kg", "result": "0.995 ± 0.029", "unit": "g"}, {"measurement": "Total abdominal fat", "setting": "DIO mice; 30 nmol/kg", "result": "0.461 ± 0.034", "unit": "g"}, {"measurement": "ALT", "setting": "DIO mice; [1]", "result": "95.60±14.09"}, {"measurement": "ALT", "setting": "DIO mice; [2]", "result": "43.90±3.86"}, {"measurement": "ALT", "setting": "DIO mice; [3]", "result": "52.80±9.62"}, {"measurement": "ALT", "setting": "DIO mice; [4]", "result": "49.60±5.67"}]}]}
